From US6914045B2, “Glycopeptide antibiotics” (Wyeth Holdings Corporation, priority 2001, dated 2005)
Values after ≈ are worked out from the molar mass of the structure shown.

Legend:
Assay in all cases: in vitro antibacterial evaluation, MIC by broth dilution
Assay type in all cases: cell-based
Streptococcus sp. = details: broth dilution, 18 hours at 35° C.
Procedure, shortened: (§1)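 Step 1: dilute antibiotic across 64-0.06 μg/mL in Muller-Hinton II […]. Step 2: inoculate at 5×10^5 CFU/mL.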

Enterococcus sp. = details: broth dilution, 18 hours at 35° C.
Procedure, shortened: as §1

Staphylococcus sp. = details: broth dilution, 18 hours at 35° C.
Procedure, shortened: as §1

Escherichia coli = details: 18 hours at 35° C.

MIC Streptococcus agalactiae (GC 4564) (Streptococcus sp.): 0.5 µg/mL (≈ 0.341 µM) | MIC Streptococcus pneumoniae (ATCC 6301) (Streptococcus sp.): <0.12 µg/mL | MIC Streptococcus pneumoniae (GC 1894) (Streptococcus sp.): <0.12 µg/mL | MIC Streptococcus pneumoniae (GC 4565) (Streptococcus sp.): 0.25 µg/mL (≈ 0.171 µM) | MIC Streptococcus pyogenes (GC 4563) (Streptococcus sp.): 0.5 µg/mL (≈ 0.341 µM) | MIC Streptococcus pneumoniae (ATCC 6301) (Streptococcus sp.; inoculum 5×10^5 CFU/mL, strain ATCC 6301): <0.12 µg/mL | MIC Streptococcus pneumoniae (GC 1894) (Streptococcus sp.; inoculum 5×10^5 CFU/mL, strain GC 1894): <0.12 µg/mL | MIC Streptococcus pyogenes (GC 4563) (Streptococcus sp.; inoculum 5×10^5 CFU/mL, strain GC 4563): 0.5 µg/mL (≈ 0.341 µM) | MIC Streptococcus agalactiae (GC 4564) (Streptococcus sp.; inoculum 5×10^5 CFU/mL, strain GC 4564): 0.5 µg/mL (≈ 0.341 µM) | MIC Streptococcus pneumoniae (GC 4565) (Streptococcus sp.; inoculum 5×10^5 CFU/mL, strain GC 4565): 0.25 µg/mL (≈ 0.171 µM) | MIC Enterococcus avium (GC 4558) (Enterococcus sp.): 4 µg/mL (≈ 2.73 µM) | MIC Enterococcus faecalis (ATCC 29212) (Enterococcus sp.): 16 µg/mL (≈ 10.9 µM) | MIC Enterococcus faecalis (GC 2242) (Enterococcus sp.): 16 µg/mL (≈ 10.9 µM) | MIC Enterococcus faecalis (GC 2691) (Enterococcus sp.): 8 µg/mL (≈ 5.46 µM) | MIC Enterococcus faecalis (GC 3059) (Enterococcus sp.): 8 µg/mL (≈ 5.46 µM) | MIC Enterococcus faecalis (GC 4552) (Enterococcus sp.): 16 µg/mL (≈ 10.9 µM) | MIC Enterococcus faecalis (GC 4553) (Enterococcus sp.): 16 µg/mL (≈ 10.9 µM) | MIC Enterococcus faecalis (GC 4554) (Enterococcus sp.): 16 µg/mL (≈ 10.9 µM) | MIC Enterococcus faecalis (GC 6189) (Enterococcus sp.): 8 µg/mL (≈ 5.46 µM) | MIC Enterococcus faecium (GC 2243) (Enterococcus sp.): 16 µg/mL (≈ 10.9 µM) | MIC Enterococcus faecium (GC 4556) (Enterococcus sp.): 16 µg/mL (≈ 10.9 µM) | MIC Enterococcus faecium (GC 4557) (Enterococcus sp.): 2 µg/mL (≈ 1.36 µM) | MIC Enterococcus faecalis (ATCC 29212) (Enterococcus sp.; strain ATCC 29212): 16 µg/mL (≈ 10.9 µM) | MIC Enterococcus faecium (GC 2243) (Enterococcus sp.; strain GC 2243): 16 µg/mL (≈ 10.9 µM) | MIC Enterococcus faecalis (GC 4552) (Enterococcus sp.; strain GC 4552): 16 µg/mL (≈ 10.9 µM) | MIC Enterococcus faecalis (GC 4553) (Enterococcus sp.; strain GC 4553): 16 µg/mL (≈ 10.9 µM) | MIC Enterococcus faecalis (GC 4554) (Enterococcus sp.; strain GC 4554): 16 µg/mL (≈ 10.9 µM) | MIC Enterococcus faecium (GC 4556) (Enterococcus sp.; strain GC 4556): 16 µg/mL (≈ 10.9 µM) | MIC Enterococcus faecium (GC 4557) (Enterococcus sp.; strain GC 4557): 2 µg/mL (≈ 1.36 µM) | MIC Enterococcus avium (GC 4558) (Enterococcus sp.; strain GC 4558): 4 µg/mL (≈ 2.73 µM) | MIC Enterococcus faecalis (GC 6189) (Enterococcus sp.; strain GC 6189): 8 µg/mL (≈ 5.46 µM) | MIC Enterococcus faecalis (GC 2242) (Enterococcus sp.; inoculum 5×10^5 CFU/mL, strain GC 2242): 16 µg/mL (≈ 10.9 µM) | MIC Enterococcus faecalis (GC 2691) (Enterococcus sp.; inoculum 5×10^5 CFU/mL, strain GC 2691): 8 µg/mL (≈ 5.46 µM) | MIC Enterococcus faecalis (GC 3059) (Enterococcus sp.; inoculum 5×10^5 CFU/mL, strain GC 3059): 8 µg/mL (≈ 5.46 µM) | MIC Coagulase Negative Staphylococcus (GC 4547) (Staphylococcus sp.): 4 µg/mL (≈ 2.73 µM) | MIC Coagulase Negative Staphylococcus (GC 4548) (Staphylococcus sp.): 2 µg/mL (≈ 1.36 µM) | MIC Coagulase Negative Staphylococcus (GC 4549) (Staphylococcus sp.): 2 µg/mL (≈ 1.36 µM) | MIC Coagulase Negative Staphylococcus (GC 4551) (Staphylococcus sp.): 2 µg/mL (≈ 1.36 µM) | MIC Coagulase Negative Staphylococcus (GC 6257) (Staphylococcus sp.): 2 µg/mL (≈ 1.36 µM) | MIC Staphylococcus aureus (ATCC 29213) (Staphylococcus sp.): 4 µg/mL (≈ 2.73 µM) | MIC Staphylococcus aureus (GC 1131) (Staphylococcus sp.): 4 µg/mL (≈ 2.73 µM) | MIC Staphylococcus aureus (GC 3051) (Staphylococcus sp.): 0.5 µg/mL (≈ 0.341 µM) | MIC Staphylococcus aureus (GC 3053) (Staphylococcus sp.): 4 µg/mL (≈ 2.73 µM) | MIC Staphylococcus aureus (GC 4541) (Staphylococcus sp.): 1 µg/mL (≈ 0.682 µM) | MIC Staphylococcus aureus (GC 4542) (Staphylococcus sp.): 2 µg/mL (≈ 1.36 µM) | MIC Staphylococcus aureus (GC 4544) (Staphylococcus sp.): 4 µg/mL (≈ 2.73 µM) | MIC Staphylococcus aureus (GC 4545) (Staphylococcus sp.): 4 µg/mL (≈ 2.73 µM) | MIC Staphylococcus aureus-SMITH (GC 4543) (Staphylococcus sp.): 2 µg/mL (≈ 1.36 µM) | MIC Staphylococcus aureus (ATCC 29213) (Staphylococcus sp.; strain ATCC 29213): 4 µg/mL (≈ 2.73 µM) | MIC Staphylococcus aureus (GC 1131) (Staphylococcus sp.; strain GC 1131): 4 µg/mL (≈ 2.73 µM) | MIC Staphylococcus aureus (GC 3051) (Staphylococcus sp.; strain GC 3051): 0.5 µg/mL (≈ 0.341 µM) | MIC Staphylococcus aureus (GC 3053) (Staphylococcus sp.; strain GC 3053): 4 µg/mL (≈ 2.73 µM) | MIC Staphylococcus aureus (GC 4541) (Staphylococcus sp.; strain GC 4541): 1 µg/mL (≈ 0.682 µM) | MIC Staphylococcus aureus (GC 4542) (Staphylococcus sp.; strain GC 4542): 2 µg/mL (≈ 1.36 µM) | MIC Staphylococcus aureus-SMITH (GC 4543) (Staphylococcus sp.; strain GC 4543): 2 µg/mL (≈ 1.36 µM) | MIC Staphylococcus aureus (GC 4544) (Staphylococcus sp.; strain GC 4544): 4 µg/mL (≈ 2.73 µM) | MIC Staphylococcus aureus (GC 4545) (Staphylococcus sp.; strain GC 4545): 4 µg/mL (≈ 2.73 µM) | MIC Coagulase Negative Staphylococcus (GC 4547) (Staphylococcus sp.; strain GC 4547): 4 µg/mL (≈ 2.73 µM) | MIC Coagulase Negative Staphylococcus (GC 4548) (Staphylococcus sp.; strain GC 4548): 2 µg/mL (≈ 1.36 µM) | MIC Coagulase Negative Staphylococcus (GC 4549) (Staphylococcus sp.; strain GC 4549): 2 µg/mL (≈ 1.36 µM) | MIC Coagulase Negative Staphylococcus (GC 4551) (Staphylococcus sp.; strain GC 4551): 2 µg/mL (≈ 1.36 µM) | MIC Coagulase Negative Staphylococcus (GC 6257) (Staphylococcus sp.; strain GC 6257): 2 µg/mL (≈ 1.36 µM) | MIC Escherichia coli (ATCC 25922) (Escherichia coli): 128 µg/mL (≈ 87.3 µM) | MIC Escherichia coli (GC 4559) (Escherichia coli): >128 µg/mL | MIC Escherichia coli (GC 4560) (Escherichia coli): 2 µg/mL (≈ 1.36 µM)
Structure (SMILES): COc1ccc(COCC2OC(OC3C(CO)OC(Oc4ccc(CC5NC(=O)C(C(C)c6ccccc6)NC(=O)CNC(=O)C(CO)NC(=O)C(C(O)C6CNC(=N)N6C6OC(CO)C(O)C(O)C6O)NC(=O)C(C(O)C6CNC(=N)N6)NC5=O)cc4)C(O)C3O)C(O)C(O)C2O)c2ccccc12 (stereo not shown) [Example 240]
MIC Staphylococcus haemolyticus (GC 4546) (Staphylococcus sp.): 2 µg/mL (≈ 1.36 µM) | MIC Staphylococcus haemolyticus (GC 4546) (Staphylococcus sp.; strain GC 4546): 2 µg/mL (≈ 1.36 µM)
